Results taken from patent US12458605B2, “Lipid nanoparticle” (National University Corporation Hokkaido University, priority 2020, dated 2025).

How the values were obtained:
[1] = Average particle size (ζ-Average) and PDI by dynamic light scattering (Zetasizer Nano ZSP); assay type: physicochemical
Experimental: The average particle size (ζ-Average) and PDI in PBS(−) of lipid nanoparticles were measured using “Zetasizer Nano ZSP”, an analyzer utilizing dynamic light scattering (manufactured by Malvern).
Measurement of average particle size and PDI of the lipid nanoparticles were carried out with the same method as the measurement of average particle size of mRNA-LNP.
The average particle size (ζ-Average) and PDI in PBS (−) of lipid nanoparticles were measured using “Zetasizer Nano ZSP”, an analyzer utilizing dynamic light scattering (manufactured by Malvern).

[2] = siRNA/mRNA encapsulation rate by Ribogreen reagent (section IV); assay type: physicochemical; settings: for % siRNA encapsulation: F7siRNA-loaded LNP, 50:10:38.5:1.5, N/P ratio 6; for % mRNA encapsulation: FlucmRNA-loaded LNP, 50:10:38.5:1.5
Experimental: The encapsulation rates of siRNA and mRNA of lipid nanoparticles were measured with Ribogreen reagent. A solution diluted with TE buffer solution was arranged so that lipid nanoparticle concentration as nucleic acid concentration to be 8 μg/mL, as a solution for measuring nanoparticle surface nucleic acid concentration. In addition, a solution for measuring total nucleic acid concentration was arranged so that lipid nanoparticle concentration as nucleic acid concentration to be 1.2 μg/mL, which is 1% (w/w) concentration of X-triton100, by adding X-triton100. For 100 μL of each solution, 100 μL of Ribogreen (registered trademark) reagent (Quant-iT™ RiboGreen™ RNA Reagent, manufactured by Thermofisher Scientific) was mixed well in the wells of 96-well microplate (black, made of polystyrene, flat bottom, manufactured by Corning), and the fluorescence intensity at an excitation wavelength of 485 nm and a measurement wavelength of 528 nm was measured with a microplate reader. Nucleic acid concentration was calculated by calibration curve created by measuring the fluorescence intensity of nucleic acid solution containing 1% X-triton100 (nucleic acid concentration: 0-2.5 μg/mL) as same as aforementioned. Nucleic acid encapsulation rate of each lipid nanoparticle was calculated by the following formula: Encapsulation rate %=(nucleic acid concentration in solution for measuring total nucleic acid concentration (μg/mL)−nucleic acid concentration in solution for measuring nanoparticle surface nucleic acid concentration (μg/mL))/nucleic acid concentration in solution for measuring total nucleic acid concentration (μg/mL)×100. <Results>
The encapsulation rate of mRNA of lipid nanoparticles was measured using Ribogreen (manufactured by life technologies).

[3] = Storage stability of FlucmRNA-loaded LNP at −80, 5, 25 and 40° C.; assay type: physicochemical; settings: for period for which quality remained good, −80° C.: maximum storage period 1 week; for period for which quality remained good, 5° C. / period for which quality remained good, 25° C. / period for which quality remained good, 40° C. (days) / period for which quality remained good, 40° C. (weeks): maximum storage period 5 weeks; for quality at production (storage stability criteria): criteria: PDI 0.2 or less, encapsulation 80% or more
Experimental: Lipid nanoparticles were allowed to stand at each temperature of −80° C., 5° C., 25° C., and 40° C., and after keeping for each period of time, average particle size, PDI, and nucleic acid encapsulation rate were measured. Lipid nanoparticles which satisfy following all three conditions were defined that the quality was remained well: the average particle size is maintained within +/−20 nm based on the date of LNP preparation; PDI remains high uniformity with a value of 0.2 or less; and the nucleic acid encapsulation rate is also maintained at 80% or more. As a result of measuring average particle size, PDI, and nucleic acid encapsulation rate after each FlucmRNA-loaded lipid nanoparticle was allowed to stand at −80° C., 5° C., 25° C., and 40° C. respectively and kept for each period of time, periods of time defined as the quality of the lipid nanoparticles was remained well are shown in Tables 13 and 14. The lipid nanoparticles which remain in good quality with standing at 5° C. for one week or more can be evaluated as having excellent stability.

F7 = experiment: In vivo F7 knockdown, plasma F7 enzyme activity (BIOPHEN FVII), Balb/c mice; settings: for F7 enzyme activity (%) / F7 enzyme activity (Ratio using MC3 as 1): i.v. 0.025 mg siRNA/kg, plasma at 24 hours; for F7 enzyme activity (%): untreated mice as 100%; for F7 enzyme activity (Ratio using MC3 as 1): relative plasma F7 activity of MC3 LNP as 1; for knockdown activity, compared with MC3: F7siRNA-loaded LNP, versus LNP comprising MC3
Experimental: Then, each prepared F7siRNA-loaded lipid nanoparticles were administered to Balb/c mice (Charles River Laboratories Japan, Inc., 5 weeks old, female) and in vivo F7 knockdown activity was examined. Specifically, BALB/c mice were intravenously administered F7siRNA-loaded lipid nanoparticles comprising the lipids described in Table 9 at 0.025 mg siRNA/kg and F7siRNA-loaded lipid nanoparticles comprising the lipids described in Tables 10 and 11 at 0.025 mg siRNA/kg, and the plasma F7 enzyme activity at 24 hours later was measured using BIOPHEN FVII (Biophen, A221304). Relative plasma F7 enzyme activity (%) of mice administered each F7siRNA-loaded lipid nanoparticles was calculated using plasma F7 enzyme activity of untreated mice as 100%. Furthermore, the ratio was calculated using the relative plasma F7 enzyme activity (%) of mice administered MC3-comprising F7siRNA-loaded lipid nanoparticles as 1. The results of measurement of CL4F6 derivative nanoparticles are shown in Tables 9 and 10, and results of measurement of CL15F6 derivative nanoparticles in Table 11.

spleen = experiment: In vivo Fluc activity of FlucmRNA-loaded LNP by in vivo imaging, spleen; settings: Balb/c mice, 6 hours; for Fluc activity in the spleen, compared with CL4F6 / Fluc activity in the spleen, compared with CL15F6: 0.1 mg mRNA/kg; for Fluc activity in the spleen, compared with CL4F6: versus LNP comprising CL4F6 (Tables 5 and 6); for Fluc Activity in spleen: FlucmRNA-loaded LNP i.v. 0.1 mg mRNA/kg; for Fluc activity in the spleen, compared with CL15F6: versus LNP comprising CL15F6 (Table 7)
Experimental: (§1) Then, each prepared FlucmRNA-loaded lipid nanoparticles were administered to Balb/c mice (Charles River Laboratories Japan, Inc., 7 weeks old, female) and in vivo gene expression activity was examined. Specifically, each FlucmRNA-loaded lipid nanoparticles were intravenously administered to Balb/c mice at 0.1 mg mRNA/kg, and Fluc activities in the liver and spleen at 6 hours later were measured. Fluc activity was measured by in vivo imaging system (Perkin Elmer, IVIS200) after administration of VivoGlo Luciferin, In Vivo Grade (Promega, P1041) dissolved with PBS to 15 mg/mL, via tail vein at a dose of 1.5 mg per mouse. The unit of Fluc activity is the emission intensity per unit area (Avg Radiance [p/s/cm2/sr]) at the maximum emission wavelength of about 560 nm. The results of measurement of the Fluc activity (Avg Radiance [p/s/cm2/sr]) in the liver and spleen of mice administered each FlucmRNA-loaded lipid nanoparticles are shown in Tables 5-7.

liver = experiment: In vivo Fluc activity of FlucmRNA-loaded LNP by in vivo imaging, liver; settings: Balb/c mice, 6 hours; for Fluc Activity in liver: FlucmRNA-loaded LNP i.v. 0.1 mg mRNA/kg
Experimental: as §1

[4] = F7siRNA-loaded LNP, 50:10:38.5:1.5, N/P ratio 6
[5] = FlucmRNA-loaded LNP, 50:10:38.5:1.5
[6] = FlucmRNA-loaded LNP, lipid:DSPC:cholesterol:DMG-PEG2K 50:10:38.5:1.5

Structure (SMILES)	PDI [1, 4]	ζ-Average (nm) [1, 4]	PDI [1, 5]	ζ-Average (nm) [1, 6]	% siRNA encapsulation [2]	% mRNA encapsulation [2]	period for which quality remained good, −80° C. [3]	period for which quality remained good, 5° C. [3]	period for which quality remained good, 25° C. [3]	period for which quality remained good, 40° C. (days) [3]	F7 enzyme activity (%) (F7)	Fluc activity in the spleen, compared with CL4F6 (spleen)	Fluc Activity in spleen (spleen)	Fluc Activity in liver (liver)	period for which quality remained good, 40° C. (weeks) [3]	F7 enzyme activity (Ratio using MC3 as 1) (F7)	Fluc activity in the spleen, compared with CL15F6 (spleen)	quality at production (storage stability criteria) [3]	knockdown activity, compared with MC3 (F7)	Fluc activity in the liver, compared with CL15F6 (liver; 0.1 mg mRNA/kg, versus LNP comprising CL15F6 (Table 7))
CCCCCCCCCCCC(CCC)C(=O)OCCCCCCC(O)(CCCCCCOC(=O)C(CCC)CCCCCCCCCCC)CCCCN(CCC)CCC (centres unmarked) [CL4F 13-3]	0.023	92.25 nm	0.044	83.05 nm	99.7%	96.3%	0 week	0 week weeks	0 week weeks	0 day days	8.4%	higher Fluc activity	7.30E+06 Avg Radiance [p/s/cm2/sr]	7.34E+07 Avg Radiance [p/s/cm2/sr]	–	–	–	–	–	–
CCCCCCCCCCCC(CCC)C(=O)OCCCCCCC(O)(CCCCCCOC(=O)C(CCC)CCCCCCCCCCC)CCCCOC(=O)C1CCN(C)CC1 (centres unmarked) [CL15F 13-3]	0.081	126.0 nm	0.048	142.90 nm	100.3%	98.62%	0 week	5 weeks	5 weeks	–	–	–	6.11E+06 Avg Radiance [p/s/cm2/sr]	3.51E+06 Avg Radiance [p/s/cm2/sr]	5 weeks	1.11	higher Fluc activity	–	–	–
CCCCCC(CCC)C(=O)OCCCCCCC(O)(CCCCCCOC(=O)C(CCC)CCCCC)CCCCOC(=O)C1CCN(C)CC1 (centres unmarked) [CL15F 7-3]	0.398	287.9 nm	0.369	370.30 nm	95.7%	64.2%	–	–	–	–	–	–	1.48E+07 Avg Radiance [p/s/cm2/sr]	5.34E+06 Avg Radiance [p/s/cm2/sr]	–	2.08	higher Fluc activity	Does not meet the criteria for “good” at production	–	–
CCCCCCCCCCCCCCC(C)C(=O)OCCCCCCC(O)(CCCCCCOC(=O)C(C)CCCCCCCCCCCCCC)CCCCN(CCC)CCC (centres unmarked) [CL4F 16-1]	0.092	64.81 nm	0.045	69.08 nm	94.9%	65.9%	–	–	–	–	103.6%	–	1.93E+06 Avg Radiance [p/s/cm2/sr]	8.52E+06 Avg Radiance [p/s/cm2/sr]	–	–	–	Does not meet the criteria for “good” at production	–	–
CCCCCCCCCC(CCCCCCC)C(=O)OCCCCCCC(O)(CCCCCCOC(=O)C(CCCCCCC)CCCCCCCCC)CCCCOC(=O)C1CCN(C)CC1 (centres unmarked) [CL15F 11-7]	0.049	102.5 nm	0.002	102.50 nm	100.6%	99.86%	1 week	5 weeks	5 weeks	–	–	–	7.13E+06 Avg Radiance [p/s/cm2/sr]	1.10E+07 Avg Radiance [p/s/cm2/sr]	5 weeks	0.85	higher Fluc activity	–	higher knockdown activity	higher Fluc activity
CCCCCCCCC(CCCC)C(=O)OCCCCCCC(O)(CCCCCCOC(=O)C(CCCC)CCCCCCCC)CCCCN(CCC)CCC (centres unmarked) [CL4F 10-4]	0.021	95.37 nm	0.041	84.92 nm	100.1%	99.8%	1 week	5 weeks	5 weeks	0 day days	1.7%	higher Fluc activity	6.70E+06 Avg Radiance [p/s/cm2/sr]	1.20E+08 Avg Radiance [p/s/cm2/sr]	–	–	–	–	higher knockdown activity	–
CCCCCCC(CCCCC)C(=O)OCCCCCCC(O)(CCCCCCOC(=O)C(CCCCC)CCCCCC)CCCCN(CCC)CCC (centres unmarked) [CL4F 8-5]	0.034	103.40 nm	0.043	94.65 nm	99.7%	99.1%	1 week	5 weeks	5 weeks	–	–	higher Fluc activity	1.45E+07 Avg Radiance [p/s/cm2/sr]	4.80E+07 Avg Radiance [p/s/cm2/sr]	5 weeks	0.38	–	–	higher knockdown activity	–
